Assay results published in PubChem BioAssay AID1918957 (Molecular Pharmacology Branch, DTP, NCI, 2023).
pIC50: −log10 of the molar value.

System: NCI-H1876 complex spheroid viability
Assay: Anticancer human tumor NCI-H1876 cell line growth inhibition [LSD1];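 further: spheroids exposed to compounds for one week before readout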;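 on viability, T/C: 100% = DMSO vehicle-treated spheroids so lower means fewer viable cells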
Settings: for pIC50: curve of first compound; for viability, T/C: stronger effect = lower value
In short: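 Complex spheroids of tumor cells with HUVEC and human MSCs, exposed to iadademstat combined with other agents. Each agent tested in half-log steps from near clinical Cmax (else 10 microM top), DMSO ≤0.25%.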

[1] = second compound 0.1 µM, first compound 0.0316 µM
[2] = second compound 0.1 µM, first compound 0.1 µM
[3] = second compound 0.1 µM, first compound 0.316 µM
[4] = second compound 0.1 µM, first compound 1 µM
[5] = second compound 0.1 µM, first compound 3.16 µM
[6] = second compound 0.1 µM, first compound 10 µM
[7] = second compound 0.316 µM, first compound 0.0316 µM
[8] = second compound 0.316 µM, first compound 0.1 µM
[9] = second compound 0.316 µM, first compound 0.316 µM
[10] = second compound 0.316 µM, first compound 1 µM
[11] = second compound 0.316 µM, first compound 3.16 µM
[12] = second compound 0.316 µM, first compound 10 µM
[13] = second compound 1 µM, first compound 0.0316 µM
[14] = second compound 1 µM, first compound 0.1 µM
[15] = second compound 1 µM, first compound 0.316 µM
[16] = second compound 1 µM, first compound 1 µM
[17] = second compound 1 µM, first compound 3.16 µM
[18] = second compound 1 µM, first compound 10 µM
[19] = second compound 3.16 µM, first compound 0.0316 µM
[20] = second compound 3.16 µM, first compound 0.1 µM
[21] = second compound 3.16 µM, first compound 0.316 µM
[22] = second compound 3.16 µM, first compound 1 µM
[23] = second compound 3.16 µM, first compound 3.16 µM
[24] = second compound 3.16 µM, first compound 10 µM
[25] = second compound 10 µM, first compound 0.0316 µM
[26] = second compound 10 µM, first compound 0.1 µM
[27] = second compound 10 µM, first compound 0.316 µM
[28] = second compound 10 µM, first compound 1 µM
[29] = second compound 10 µM, first compound 3.16 µM
[30] = second compound 10 µM, first compound 10 µM
[31] = second compound 0.1 µM, first compound 0.00949 µM
[32] = second compound 0.1 µM, first compound 0.03 µM
[33] = second compound 0.1 µM, first compound 0.0949 µM
[34] = second compound 0.1 µM, first compound 0.3 µM
[35] = second compound 0.316 µM, first compound 0.00949 µM
[36] = second compound 0.316 µM, first compound 0.03 µM
[37] = second compound 0.316 µM, first compound 0.0949 µM
[38] = second compound 0.316 µM, first compound 0.3 µM
[39] = second compound 1 µM, first compound 0.00949 µM
[40] = second compound 1 µM, first compound 0.03 µM
[41] = second compound 1 µM, first compound 0.0949 µM
[42] = second compound 1 µM, first compound 0.3 µM
[43] = second compound 3.16 µM, first compound 0.00949 µM
[44] = second compound 3.16 µM, first compound 0.03 µM
[45] = second compound 3.16 µM, first compound 0.0949 µM
[46] = second compound 3.16 µM, first compound 0.3 µM
[47] = second compound 10 µM, first compound 0.00949 µM
[48] = second compound 10 µM, first compound 0.03 µM
[49] = second compound 10 µM, first compound 0.0949 µM
[50] = second compound 10 µM, first compound 0.3 µM

Work on `CC1(C)CCC(CN2CCN(c3ccc(C(=O)NS(=O)(=O)c4ccc(NCC5CCOCC5)c([N+](=O)[O-])c4)c(Oc4cnc5[nH]ccc5c4)c3)CC2)=C(c2ccc(Cl)cc2)C1` + NC1CCC(NC2CC2c2ccccc2)CC1 yielded a pIC50 (second compound 0.1 µM) of 5.67, a pIC50 (second compound 0.316 µM) of 5.70 and a pIC50 (second compound 1 µM) of 5.68. It also gave a pIC50 (second compound 3.16 µM) of 5.69, a pIC50 (second compound 10 µM) of 5.70 and a viability, T/C [1] of 103%. It also gave a viability, T/C [2] of 98.4%, a viability, T/C [3] of 99.3% and a viability, T/C [4] of 100%. For the same compound, the viability, T/C [5] was 24.5%, the viability, T/C [6] was 9.5% and the viability, T/C [7] was 104%. For the same compound, the viability, T/C [8] was 105%, the viability, T/C [9] was 97% and the viability, T/C [10] was 89.1%. The viability, T/C [11] was 24.3%, the viability, T/C [12] was 10.5% and the viability, T/C [13] was 92.9%. It also gave a viability, T/C [14] of 104%, a viability, T/C [15] of 102% and a viability, T/C [16] of 98.9%. For the same compound, the viability, T/C [17] was 22.4%, the viability, T/C [18] was 8.48% and the viability, T/C [19] was 115%. The viability, T/C [20] was 96.2%, the viability, T/C [21] was 103% and the viability, T/C [22] was 101%. It also gave a viability, T/C [23] of 19.8%, a viability, T/C [24] of 7.55% and a viability, T/C [25] of 99.2%. For the same compound, the viability, T/C [26] was 110%, the viability, T/C [27] was 87.2% and the viability, T/C [28] was 90.6%. For the same compound, the viability, T/C [29] was 23.6% and the viability, T/C [30] was 8%.
`CC1COCCN1c1cc(C2(S(C)(=N)=O)CC2)nc(-c2ccnc3[nH]ccc23)n1` (stereo not given) + NC1CCC(NC2CC2c2ccccc2)CC1 was tested, and the pIC50 (second compound 0.1 µM) was 5.13, the pIC50 (second compound 0.316 µM) was 5.18 and the pIC50 (second compound 1 µM) was 5.17. For the same compound, the pIC50 (second compound 3.16 µM) was 5.21, the pIC50 (second compound 10 µM) was 5.26 and the viability, T/C [1] was 115%. For the same compound, the viability, T/C [2] was 116%, the viability, T/C [3] was 115% and the viability, T/C [4] was 124%. It also gave a viability, T/C [5] of 91.6%, a viability, T/C [6] of 35.9% and a viability, T/C [7] of 119%. For the same compound, the viability, T/C [8] was 129%, the viability, T/C [9] was 117% and the viability, T/C [10] was 105%. The viability, T/C [11] was 86.2%, the viability, T/C [12] was 30.7% and the viability, T/C [13] was 118%. The viability, T/C [14] was 116%, the viability, T/C [15] was 114% and the viability, T/C [16] was 113%. The viability, T/C [17] was 86.6%, the viability, T/C [18] was 30.7% and the viability, T/C [19] was 116%. The viability, T/C [20] was 130%, the viability, T/C [21] was 126% and the viability, T/C [22] was 110%. It also gave a viability, T/C [23] of 80.6%, a viability, T/C [24] of 28.8% and a viability, T/C [25] of 114%. The viability, T/C [26] was 116%, the viability, T/C [27] was 113% and the viability, T/C [28] was 101%. The viability, T/C [29] was 73.7% and the viability, T/C [30] was 24.2%.
In the case of `CCN(c1cc(-c2ccc(CN3CCOCC3)cc2)cc(C(=O)NCc2c(C)cc(C)[nH]c2=O)c1C)C1CCOCC1` + NC1CCC(NC2CC2c2ccccc2)CC1, the pIC50 (second compound 0.1 µM) was under 5.52, the pIC50 (second compound 0.316 µM) was under 5.52 and the pIC50 (second compound 1 µM) was under 5.52. It also gave a pIC50 (second compound 3.16 µM) of under 5.52, a pIC50 (second compound 10 µM) of under 5.52 and a viability, T/C [31] of 108%. It also gave a viability, T/C [32] of 103%, a viability, T/C [33] of 104% and a viability, T/C [34] of 93.8%. For the same compound, the viability, T/C (second compound 0.1 µM, first compound 0.949 µM) was 85.3%, the viability, T/C (second compound 0.1 µM, first compound 3 µM) was 64% and the viability, T/C [35] was 110%. For the same compound, the viability, T/C [36] was 117%, the viability, T/C [37] was 102% and the viability, T/C [38] was 93.3%. It also gave a viability, T/C (second compound 0.316 µM, first compound 0.949 µM) of 87.1%, a viability, T/C (second compound 0.316 µM, first compound 3 µM) of 65.8% and a viability, T/C [39] of 104%. The viability, T/C [40] was 111%, the viability, T/C [41] was 102% and the viability, T/C [42] was 91.3%. The viability, T/C (second compound 1 µM, first compound 0.949 µM) was 84.9%, the viability, T/C (second compound 1 µM, first compound 3 µM) was 54.4% and the viability, T/C [43] was 99.8%. It also gave a viability, T/C [44] of 109%, a viability, T/C [45] of 106% and a viability, T/C [46] of 108%. It also gave a viability, T/C (second compound 3.16 µM, first compound 0.949 µM) of 86.3%, a viability, T/C (second compound 3.16 µM, first compound 3 µM) of 56.3% and a viability, T/C [47] of 115%. The viability, T/C [48] was 106%, the viability, T/C [49] was 97.4% and the viability, T/C [50] was 97.6%. The viability, T/C (second compound 10 µM, first compound 0.949 µM) was 79% and the viability, T/C (second compound 10 µM, first compound 3 µM) was 56.8%.
In the case of `Nc1ncn(C2CC(O)C(CO)S2)c(=O)n1` (stereo not given) + NC1CCC(NC2CC2c2ccccc2)CC1, the pIC50 (second compound 0.1 µM) was under 6.52, the pIC50 (second compound 0.316 µM) was under 6.52 and the pIC50 (second compound 1 µM) was under 6.52. The pIC50 (second compound 3.16 µM) was under 6.52, the pIC50 (second compound 10 µM) was under 6.52 and the viability, T/C (second compound 0.1 µM, first compound 0.000949 µM) was 106%. It also gave a viability, T/C (second compound 0.1 µM, first compound 0.003 µM) of 100%, a viability, T/C [31] of 92.6% and a viability, T/C [32] of 87.9%. For the same compound, the viability, T/C [33] was 84.5%, the viability, T/C [34] was 70.7% and the viability, T/C (second compound 0.316 µM, first compound 0.000949 µM) was 105%. The viability, T/C (second compound 0.316 µM, first compound 0.003 µM) was 113%, the viability, T/C [35] was 98.5% and the viability, T/C [36] was 99.2%. The viability, T/C [37] was 85.7%, the viability, T/C [38] was 67.8% and the viability, T/C (second compound 1 µM, first compound 0.000949 µM) was 109%. The viability, T/C (second compound 1 µM, first compound 0.003 µM) was 117%, the viability, T/C [39] was 99.2% and the viability, T/C [40] was 93.4%. The viability, T/C [41] was 85.2%, the viability, T/C [42] was 64.1% and the viability, T/C (second compound 3.16 µM, first compound 0.000949 µM) was 119%. For the same compound, the viability, T/C (second compound 3.16 µM, first compound 0.003 µM) was 113%, the viability, T/C [43] was 105% and the viability, T/C [44] was 91.5%. It also gave a viability, T/C [45] of 81.3%, a viability, T/C [46] of 63.2% and a viability, T/C (second compound 10 µM, first compound 0.000949 µM) of 118%. It also gave a viability, T/C (second compound 10 µM, first compound 0.003 µM) of 108%, a viability, T/C [47] of 98.8% and a viability, T/C [48] of 96.9%. The viability, T/C [49] was 81.1% and the viability, T/C [50] was 57%.
